# Results from US20250332125A1, “TREATMENT OF MODERATE AND SEVERE GASTROPARESIS” (priority 2016, published 2025).
# Assays:
# Assay type in all cases: in vivo, human
# [1] = tested on: adult female subjects with diabetic gastroparesis; assay: Phase 3 multicenter, randomized, double-blind, placebo-controlled study of metoclopramide nasal spray: symptom efficacy (GSA scores); parameters: Estimated Mean Change from Baseline in Mean Daily GSA Total Scores (LSMean from ANCOVA) / Mean Change from Baseline in Mean Daily Nausea Score (LSMean from ANCOVA): scale not given here; conditions: for Mean Change from Baseline in Mean Daily Nausea Score (LSMean from ANCOVA) / Mean Change from Baseline in Mean Daily Upper Abdominal Pain Score (LSMean from ANCOVA): ITT Population with Moderate to Severe Symptoms; for Estimated Mean Change from Baseline in Mean Daily GSA Total Scores (LSMean from ANCOVA): Baseline GSA >2.7 (BOCF)
# Protocol: A multicenter, randomized, double-blind, placebo-controlled clinical study of intranasal metoclopramide (“IN MCP”) in female diabetic gastroparesis patients was carried out. The study explored the use of IN MCP for the relief of symptoms associated with acute and recurrent diabetic gastroparesis in adult women. […] The study was a U.S. multicenter, randomized, double-blind, placebo-controlled, parallel-group study of the efficacy and safety of IN MCP compared to placebo in adult female subjects with diabetic gastroparesis. Diabetic women with clinical symptoms attributed to diabetic gastroparesis, and documentation of delayed gastric emptying who met the protocol-specified entry criteria were randomized 1:1 in a parallel-group design to IN MCP (10 mg metoclopramide) or placebo administered as a single nasal spray four times daily; 30 minutes before meals and at bedtime for a total of four weeks. Eligible patients received a dose of IN MCP or placebo 30 minutes before meals and at bedtime daily. A total of 205 female gastroparesis patients were enrolled. Of the total, nearly half had been identified as having moderate to severe gastroparesis. […] Diabetic women with clinical symptoms attributed to diabetic gastroparesis and documentation of delayed gastric emptying who met the protocol-specified entry criteria were randomized to Metoclopramide Nasal Spray 10 mg or placebo administered as a single intranasal spray four (4) times daily; 30 minutes before meals and at bedtime for a total of four (4) weeks. Inclusion criteria included prior diagnosis of Type 1 or Type 2 diabetes, and diagnosis of diabetic gastroparesis with delayed gastric emptying. […]
# [2] = Tardive dyskinesia reports over the clinical development program; conditions: 1,311 exposed healthy volunteers and patients over the clinical development program
# [3] = Phase 3 study of metoclopramide nasal spray: safety, treatment-emergent adverse events
# Protocol: The study was a U.S. multicenter, randomized, double-blind, placebo-controlled, parallel-group study of the efficacy and safety of IN MCP compared to placebo in adult female subjects with diabetic gastroparesis. Diabetic women with clinical symptoms attributed to diabetic gastroparesis, and documentation of delayed gastric emptying who met the protocol-specified entry criteria were randomized 1:1 in a parallel-group design to IN MCP (10 mg metoclopramide) or placebo administered as a single nasal spray four times daily; 30 minutes before meals and at bedtime for a total of four weeks. Eligible patients received a dose of IN MCP or placebo 30 minutes before meals and at bedtime daily.
# Diabetic women with clinical symptoms attributed to diabetic gastroparesis and documentation of delayed gastric emptying who met the protocol-specified entry criteria were randomized to Metoclopramide Nasal Spray 10 mg or placebo administered as a single intranasal spray four (4) times daily; 30 minutes before meals and at bedtime for a total of four (4) weeks.
# [4] = Week 1, 10 mg intranasal four times daily, N = 52
# [5] = Week 2, 10 mg intranasal four times daily, N = 52
# [6] = Week 3, 10 mg intranasal four times daily, N = 52
# [7] = Week 4, 10 mg intranasal four times daily, N = 52
# [8] = 10 mg intranasal four times daily, 4 weeks, N = 102
compound,measurement,setting,value
"CCN(CC)CCNC(=O)c1cc(Cl)c(N)cc1OC [IN MCP, 4-amino-5-chloro-N-[2-(diethylamino)ethyl]-2-methoxybenzamide]",Mean Change from Baseline in Mean Daily Nausea Score (LSMean from ANCOVA),[1]; [4],−0.859
same,Mean Change from Baseline in Mean Daily Upper Abdominal Pain Score (LSMean from ANCOVA),[1]; [4],−0.641
same,Mean Change from Baseline in Mean Daily Nausea Score (LSMean from ANCOVA),[1]; [5],−1.149
same,Mean Change from Baseline in Mean Daily Upper Abdominal Pain Score (LSMean from ANCOVA),[1]; [5],−0.990
same,Mean Change from Baseline in Mean Daily Nausea Score (LSMean from ANCOVA),[1]; [6],−1.242
same,Mean Change from Baseline in Mean Daily Upper Abdominal Pain Score (LSMean from ANCOVA),[1]; [6],−1.194
same,Mean Change from Baseline in Mean Daily Nausea Score (LSMean from ANCOVA),[1]; [7],−1.404
same,Mean Change from Baseline in Mean Daily Upper Abdominal Pain Score (LSMean from ANCOVA),[1]; [7],−1.218
same,Estimated Mean Change from Baseline in Mean Daily GSA Total Scores (LSMean from ANCOVA),"[1]; ITT, Week 1, 10 mg intranasal four times daily, N = 52",−0.588
same,Estimated Mean Change from Baseline in Mean Daily GSA Total Scores (LSMean from ANCOVA),"[1]; ITT, Week 2, 10 mg intranasal four times daily, N = 52",−0.950
same,Estimated Mean Change from Baseline in Mean Daily GSA Total Scores (LSMean from ANCOVA),"[1]; ITT, Week 3, 10 mg intranasal four times daily, N = 52",−1.096
same,Estimated Mean Change from Baseline in Mean Daily GSA Total Scores (LSMean from ANCOVA),"[1]; ITT, Week 4, 10 mg intranasal four times daily, N = 52",−1.220
same,Estimated Mean Change from Baseline in Mean Daily GSA Total Scores (LSMean from ANCOVA),"[1]; Per Protocol, Week 1, 10 mg intranasal four times daily, N = 38",−0.623
same,Estimated Mean Change from Baseline in Mean Daily GSA Total Scores (LSMean from ANCOVA),"[1]; Per Protocol, Week 2, 10 mg intranasal four times daily, N = 38",−1.040
same,Estimated Mean Change from Baseline in Mean Daily GSA Total Scores (LSMean from ANCOVA),"[1]; Per Protocol, Week 3, 10 mg intranasal four times daily, N = 38",−1.286
same,Estimated Mean Change from Baseline in Mean Daily GSA Total Scores (LSMean from ANCOVA),"[1]; Per Protocol, Week 4, 10 mg intranasal four times daily, N = 38",−1.373
same,"Efficacy versus placebo, change from baseline","[1]; all enrolled patients across all severities of disease (205 female patients), 10 mg intranasal q.i.d.",no statistically significant change from baseline in efficacy versus placebo
same,Efficacy compared to placebo,"[1]; mild gastroparesis, intranasal, same treatment regimen",did not demonstrate statistically significant efficacy
same,Improvements in nausea and abdominal pain,"[1]; patient segment with moderate to severe symptoms of gastroparesis, versus placebo",clinically and statistically significant improvements
same,Efficacy versus placebo (post-hoc analysis),"[1]; patients who entered the study with moderate to severe gastroparesis, 10 mg intranasal q.i.d.",statistically significant efficacy
same,Reports of tardive dyskinesia,[2],no reports of tardive dyskinesia
same,"Treatment-Emergent Adverse Event Epistaxis, number of subjects",[3]; [8],1 (1%)
same,"Treatment-Emergent Adverse Event Epistaxis, percent of subjects",[3]; [8],1 (1%)
same,"Treatment-Emergent Adverse Event Fatigue, number of subjects",[3]; [8],2 (2%)
same,"Treatment-Emergent Adverse Event Fatigue, percent of subjects",[3]; [8],2 (2%)
same,"Treatment-Emergent Adverse Event Headache, number of subjects",[3]; [8],5 (5%)
same,"Treatment-Emergent Adverse Event Headache, percent of subjects",[3]; [8],5 (5%)
same,"Treatment-Emergent Adverse Event Nasal discomfort, number of subjects",[3]; [8],1 (1%)
same,"Treatment-Emergent Adverse Event Nasal discomfort, percent of subjects",[3]; [8],1 (1%)
same,Central nervous system (CNS) effects that have been associated with oral and parenteral metoclopramide,[3]; delivered as a nasal spray,no central nervous system (CNS) effects observed
same,Drug-related adverse effects,[3]; intranasal,no reported drug-related adverse effects
same,Overall safety results,"[3]; nasal spray 10 mg four times daily, 4 weeks",no significant adverse effects
